According to patent US20250270191A1, “QUINOLONE BCL6 BIFUNCTIONAL DEGRADERS” (Treeline Biosciences, Inc., priority 2022, published 2025):

Molecular target: T1, Human BCL6 protein (N-terminal HiBiT tagged BCL6 in HT1080 cells) (Homo sapiens, UniProt P41182+Q96SW2)
T1 construct: Human BCL6 protein coding open reading frame; expressed in transfected cells; host or cells: HT1080 (ATCC CCL-121), stably transduced with lentivirus pLV-UBC-N-HiBiT-BCL6-PGK-puro
Test: HiBiT based BCL6 degradation assay
Type: cell-based
Conditions: HT1080 cells expressing N-terminal HiBiT tagged BCL6; 5 hours incubation; BCL6 degradation normalized with DMSO control
Text: Human BCL6 protein coding open reading frame fused with N-terminal HiBiT coding sequence was synthesized from Integrated DNA Technologies (IDT). Next, the N-HiBiT-BCL6 sequence was cloned into pLV-UBC-PGK-Puro, a lentivirus plasmid purchased from Vectorbuilder, to generate pLV-UBC-N-HiBiT-BCL6-PGK-puro. Lentiviral particles were generated from Lenti-X™ 293T cells (Clontech) by co-transfection of pLV-UBC-N-HiBiT-BCL6-PGK-puro plasmids and lentiviral packaging plasmid mix (Cellecta). HT1080 [HT1080] (ATCC CCL-121) cells were infected with the lentivirus, and HT1080 cells stably integrated with the lentiviral vectors were established by incubation with 1 μg/mL puromycin (Thermofisher).
HT1080 cells expressing N-terminal HiBiT tagged BCL6 were dispensed into a 384-well plate pre-spotted with compounds at varying concentrations. Five thousand cells were seeded into each well in 40 μL of RPMI 1640 media plus 10% Fetal Bovine Serum (10082-147, Thermofisher). After 5 hours of incubation at 37° C. with 5% CO2, 30 μL of the NANO-GLO® HiBiT Lytic Detection System working solution (Promega) was added to each well and incubated at room temperature for 15 min. After incubation, luminescence was read on a PHERAstar FSX Plate Reader (BMG). BCL6 degradation at each indicated concentration was normalized with DMSO control. The BCL6 degradation curves were plotted using a four-parameter logistic model.

| Ymin (5 hr) | Compound |
| --- | --- |
| ++ (50% < Ymin ≤ 70%) | CNC(=O)COc1cc2cc(Nc3nc(N4CCC(CCCCOc5ccc6c(C7CCC(=O)NC7=O)nn(C)c6c5)CC4)ncc3Cl)ccc2n(C)c1=O (centres unmarked) [Compound 319, 2-((6-((5-chloro-2-(4-(4-((3-(2,6-dioxopiperidin-3-yl)-1-methyl-1H-indazol-6-yl)oxy)butyl)piperidin-1-yl)pyrimidin-4-yl)amino)-1-methyl-2-oxo-1,2-dihydroquinolin-3-yl)oxy)-N-methylacetamide] |
| ++++ (Ymin ≤ 25%) | CNC(=O)COc1cc2cc(Nc3nc(NC[C@H]4CC[C@H](Nc5ccc6c(C7CCC(=O)NC7=O)nn(C)c6c5)CC4)ncc3Cl)ccc2n(C)c1=O (some centres unmarked) [Compound 289b, 2-((6-((5-chloro-2-((((1r,4r)-4-((3-(2,6-dioxopiperidin-3-yl)-1-methyl-1H-indazol-6-yl)amino)cyclohexyl)methyl)amino)pyrimidin-4-yl)amino)-1-methyl-2-oxo-1,2-dihydroquinolin-3-yl)oxy)-N-methylacetamide] |
| ++++ (Ymin ≤ 25%) | CNC(=O)COc1cc2cc(Nc3nc(N4CCN(CC5CCC6(CC5)CN(c5ccc7c(C8CCC(=O)NC8=O)nn(C)c7c5)C6)CC4)ncc3Cl)ccc2n(C)c1=O (centres unmarked) [Compound 103, 2-((6-((5-chloro-2-(4-((2-(3-(2,6-dioxopiperidin-3-yl)-1-methyl-1H-indazol-6-yl)-2-azaspiro[3.5]nonan-7-yl)methyl)piperazin-1-yl)pyrimidin-4-yl)amino)-1-methyl-2-oxo-1,2-dihydroquinolin-3-yl)oxy)-N-methylacetamide] |
| +++ (25% < Ymin ≤ 50%) | CNC(=O)COc1cc2cc(Nc3nc(N4CCN(CC5CCN(c6ccc7c(C8CCC(=O)NC8=O)nn(C)c7c6)CC5)[C@H](C)C4)ncc3Cl)ccc2n(C)c1=O (stereo partly drawn) [Compound 309a, 2-((6-((5-chloro-2-((3R)-4-((1-(3-(2,6-dioxopiperidin-3-yl)-1-methyl-1H-indazol-6-yl)piperidin-4-yl)methyl)-3-methylpiperazin-1-yl)pyrimidin-4-yl)amino)-1-methyl-2-oxo-1,2-dihydroquinolin-3-yl)oxy)-N-methylacetamide] |
| ++++ (Ymin ≤ 25%) | CNC(=O)COc1cc2cc(Nc3nc(N4CCC(OC5CCN(c6cccc7c(C8CCC(=O)NC8=O)nn(C)c67)CC5)CC4)ncc3Cl)ccc2n(C)c1=O (centres unmarked) [Compound 316, 2-((6-((5-chloro-2-(4-((1-(3-(2,6-dioxopiperidin-3-yl)-1-methyl-1H-indazol-7-yl)piperidin-4-yl)oxy)piperidin-1-yl)pyrimidin-4-yl)amino)-1-methyl-2-oxo-1,2-dihydroquinolin-3-yl)oxy)-N-methylacetamide] |
| ++ (50% < Ymin ≤ 70%) | CNC(=O)COc1cc2cc(Nc3nc(N4CCC[C@@H](CNc5ccc(C6CCC(=O)NC6=O)cc5)C4)ncc3Cl)ccc2n(C)c1=O (stereo partly drawn) [Compound 106b, 2-((6-((5-chloro-2-((3S)-3-(((4-(2,6-dioxopiperidin-3-yl)phenyl)amino)methyl)piperidin-1-yl)pyrimidin-4-yl)amino)-1-methyl-2-oxo-1,2-dihydroquinolin-3-yl)oxy)-N-methylacetamide] |
| ++ (50% < Ymin ≤ 70%) | CNC(=O)COc1cc2cc(Nc3nc(N4CCC[C@@H](CCNc5cccc6c(C7CCC(=O)NC7=O)nn(C)c56)C4)ncc3Cl)ccc2n(C)c1=O (stereo in doubt) [Compound 294a, rel-2-((6-((5-chloro-2-((3S)-3-(2-((3-(2,6-dioxopiperidin-3-yl)-1-methyl-1H-indazol-7-yl)amino)ethyl)piperidin-1-yl)pyrimidin-4-yl)amino)-1-methyl-2-oxo-1,2-dihydroquinolin-3-yl)oxy)-N-methylacetamide] |
| ++ (50% < Ymin ≤ 70%) | CNC(=O)COc1cc2cc(Nc3nc(N4CCC[C@H](Nc5ccc6c(C7CCC(=O)NC7=O)nn(C)c6c5)C4)ncc3Cl)ccc2n(C)c1=O (stereo partly drawn) [Compound 280a, 2-((6-((5-chloro-2-((3S)-3-((3-(2,6-dioxopiperidin-3-yl)-1-methyl-1H-indazol-6-yl)amino)piperidin-1-yl)pyrimidin-4-yl)amino)-1-methyl-2-oxo-1,2-dihydroquinolin-3-yl)oxy)-N-methylacetamide] |
| +++ (25% < Ymin ≤ 50%) | CNC(=O)COc1cc2cc(Nc3nc(N4CCN(C5CN(c6cccc7c(C8CCC(=O)NC8=O)nn(C)c67)C5)CC4)ncc3Cl)ccc2n(C)c1=O (centres unmarked) [Compound 283, 2-((6-((5-chloro-2-(4-(1-(3-(2,6-dioxopiperidin-3-yl)-1-methyl-1H-indazol-7-yl)azetidin-3-yl)piperazin-1-yl)pyrimidin-4-yl)amino)-1-methyl-2-oxo-1,2-dihydroquinolin-3-yl)oxy)-N-methylacetamide] |
| +++ (25% < Ymin ≤ 50%) | CNC(=O)COc1cc2cc(Nc3nc(N4CCN(CC5CCC6(CC5)CN(c5ccc7c(C8CCC(=O)NC8=O)nn(C)c7c5)C6)CC4)ncc3Cl)ccc2n(C(C)C)c1=O (centres unmarked) [Compound 298, 2-((6-((5-chloro-2-(4-((2-(3-(2,6-dioxopiperidin-3-yl)-1-methyl-1H-indazol-6-yl)-2-azaspiro[3.5]nonan-7-yl)methyl)piperazin-1-yl)pyrimidin-4-yl)amino)-1-isopropyl-2-oxo-1,2-dihydroquinolin-3-yl)oxy)-N-methylacetamide] |
| + (Ymin > 70%) | CNC(=O)COc1cc2cc(Nc3nc(N4CCC[C@H]4CNc4cccc(C5CCC(=O)NC5=O)c4)ncc3Cl)ccc2n(C)c1=O (stereo partly drawn) [Compound 260b, 2-((6-((5-chloro-2-((2S)-2-(((3-(2,6-dioxopiperidin-3-yl)phenyl)amino)methyl)pyrrolidin-1-yl)pyrimidin-4-yl)amino)-1-methyl-2-oxo-1,2-dihydroquinolin-3-yl)oxy)-N-methylacetamide] |
| ++ (50% < Ymin ≤ 70%) | CNC(=O)COc1cc2cc(Nc3nc(N4CCC(CCNc5ccc(C6CCC(=O)NC6=O)cc5)CC4)ncc3Cl)ccc2n(C)c1=O (centres unmarked) [Compound 284, 2-((6-((5-chloro-2-(4-(2-((4-(2,6-dioxopiperidin-3-yl)phenyl)amino)ethyl)piperidin-1-yl)pyrimidin-4-yl)amino)-1-methyl-2-oxo-1,2-dihydroquinolin-3-yl)oxy)-N-methylacetamide] |
| +++ (25% < Ymin ≤ 50%) | CNC(=O)COc1cc2cc(Nc3nc(N4CCC(CC5CCN(c6cccc7c(C8CCC(=O)NC8=O)nn(C)c67)CC5)CC4)ncc3Cl)ccc2n(C)c1=O (centres unmarked) [Compound 281, 2-((6-((5-chloro-2-(4-((1-(3-(2,6-dioxopiperidin-3-yl)-1-methyl-1H-indazol-7-yl)piperidin-4-yl)methyl)piperidin-1-yl)pyrimidin-4-yl)amino)-1-methyl-2-oxo-1,2-dihydroquinolin-3-yl)oxy)-N-methylacetamide] |
| +++ (25% < Ymin ≤ 50%) | CNC(=O)COc1cc2cc(Nc3nc(N4CCC(OC5CCN(c6ccc7c(C8CCC(=O)NC8=O)nn(C)c7c6)CC5)CC4)ncc3Cl)ccc2n(C)c1=O (centres unmarked) [Compound 287, 2-((6-((5-chloro-2-(4-((1-(3-(2,6-dioxopiperidin-3-yl)-1-methyl-1H-indazol-6-yl)piperidin-4-yl)oxy)piperidin-1-yl)pyrimidin-4-yl)amino)-1-methyl-2-oxo-1,2-dihydroquinolin-3-yl)oxy)-N-methylacetamide] |
| ++++ (Ymin ≤ 25%) | CNC(=O)COc1cc2cc(Nc3nc(N4CC5(CCC(Nc6ccc7c(C8CCC(=O)NC8=O)nn(C)c7c6)CC5)C4)ncc3Cl)ccc2n(C)c1=O (centres unmarked) [Compound 341, 2-((6-((5-chloro-2-(7-((3-(2,6-dioxopiperidin-3-yl)-1-methyl-1H-indazol-6-yl)amino)-2-azaspiro[3.5]nonan-2-yl)pyrimidin-4-yl)amino)-1-methyl-2-oxo-1,2-dihydroquinolin-3-yl)oxy)-N-methylacetamide] |
| +++ (25% < Ymin ≤ 50%) | CNC(=O)COc1cc2cc(Nc3nc(N4CCCC5(CCN(c6ccc7c(C8CCC(=O)NC8=O)nn(C)c7c6)C5)C4)ncc3Cl)ccc2n(C)c1=O (centres unmarked) [Compound 331, 2-((6-((5-chloro-2-(2-(3-(2,6-dioxopiperidin-3-yl)-1-methyl-1H-indazol-6-yl)-2,7-diazaspiro[4.5]decan-7-yl)pyrimidin-4-yl)amino)-1-methyl-2-oxo-1,2-dihydroquinolin-3-yl)oxy)-N-methylacetamide] |
| +++ (25% < Ymin ≤ 50%) | CNC(=O)COc1cc2cc(Nc3nc(N4CCC[C@H](CN(C)c5cccc6c(C7CCC(=O)NC7=O)nn(C)c56)C4)ncc3Cl)ccc2n(C)c1=O (stereo partly drawn) [Compound 299a, 2-((6-((5-chloro-2-((3R)-3-(((3-(2,6-dioxopiperidin-3-yl)-1-methyl-1H-indazol-7-yl)(methyl)amino)methyl)piperidin-1-yl)pyrimidin-4-yl)amino)-1-methyl-2-oxo-1,2-dihydroquinolin-3-yl)oxy)-N-methylacetamide] |
